Test results taken from publication PMC8573357, “Exploring Multifunctional Bioactive Components from Podophyllum sinense Using Multi-Target Ultrafiltration” (Frontiers in Pharmacology, 2021).

Target: ACE2 (Homo sapiens, UniProt Q9BYF1)
Test: affinity ultrafiltration-HPLC/MS from crude extract against heat-inactivated control; identity by standard
Assay type: binding

ACE2, sequence (Q9BYF1 18-805): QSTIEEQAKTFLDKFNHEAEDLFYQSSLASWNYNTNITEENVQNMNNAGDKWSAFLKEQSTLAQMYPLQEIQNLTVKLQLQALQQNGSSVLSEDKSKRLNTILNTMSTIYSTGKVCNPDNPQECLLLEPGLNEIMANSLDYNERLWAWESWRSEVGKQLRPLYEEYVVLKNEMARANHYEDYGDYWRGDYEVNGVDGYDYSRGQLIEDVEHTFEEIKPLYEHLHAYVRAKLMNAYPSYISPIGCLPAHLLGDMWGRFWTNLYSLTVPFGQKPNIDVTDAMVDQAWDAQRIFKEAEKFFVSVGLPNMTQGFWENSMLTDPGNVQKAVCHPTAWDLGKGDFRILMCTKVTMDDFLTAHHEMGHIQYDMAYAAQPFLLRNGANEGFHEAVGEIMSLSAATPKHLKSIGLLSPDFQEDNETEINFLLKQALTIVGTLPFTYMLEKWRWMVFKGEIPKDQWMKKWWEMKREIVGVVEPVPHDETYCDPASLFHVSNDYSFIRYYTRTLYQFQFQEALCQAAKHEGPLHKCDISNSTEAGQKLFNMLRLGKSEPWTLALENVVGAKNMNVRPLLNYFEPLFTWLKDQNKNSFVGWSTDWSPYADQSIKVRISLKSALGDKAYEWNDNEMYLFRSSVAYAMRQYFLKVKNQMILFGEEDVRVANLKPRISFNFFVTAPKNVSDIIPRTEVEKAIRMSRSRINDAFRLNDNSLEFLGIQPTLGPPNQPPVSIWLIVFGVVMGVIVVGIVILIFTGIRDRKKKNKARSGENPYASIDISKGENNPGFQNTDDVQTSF

| Structure (SMILES) | EFs ^b (%) / ACE2 |
| --- | --- |
| COc1cc2c(O)c3c(c(-c4ccc5c(c4)OCO5)c2cc1OC)C(=O)OC3 [Peak 10, Diphyllin] | 3.68 % (enrichment factor) |
| O=c1c(O)c(-c2ccc(O)cc2)oc2cc(O)cc(O)c12 [Peak 7, Kaempferol] | 3.10 % (enrichment factor) |
